Data published in PMC8914261, “Discovery and Characterization of the Naturally Occurring Inhibitors Against Human Pancreatic Lipase in Ampelopsis grossedentata” (Frontiers in Nutrition, 2022).
One block for each compound: values may come before it.

What was measured:
[1] = target: T1, human pancreatic lipase (hPL) (Homo sapiens, UniProt P16233); experiment: hPL inhibition assay (hPL-catalyzed DDAO-ol hydrolysis, fluorescence); type: biochemical; settings: for hPL inhibition at high dose: inhibitor at 100 μM; for IC50: hPL, DDAO-ol 20 μM as substrate, 3 min pre-incubation at 37°C; for remaining activity at 10 µM: inhibitor at 10 μM, read-out: residual activities of hPL; for hPL inhibition activity (qualitative): tested at 1, 10 and 100 μM
T1 construct: made in house
T1 sequence (P16233 17-465): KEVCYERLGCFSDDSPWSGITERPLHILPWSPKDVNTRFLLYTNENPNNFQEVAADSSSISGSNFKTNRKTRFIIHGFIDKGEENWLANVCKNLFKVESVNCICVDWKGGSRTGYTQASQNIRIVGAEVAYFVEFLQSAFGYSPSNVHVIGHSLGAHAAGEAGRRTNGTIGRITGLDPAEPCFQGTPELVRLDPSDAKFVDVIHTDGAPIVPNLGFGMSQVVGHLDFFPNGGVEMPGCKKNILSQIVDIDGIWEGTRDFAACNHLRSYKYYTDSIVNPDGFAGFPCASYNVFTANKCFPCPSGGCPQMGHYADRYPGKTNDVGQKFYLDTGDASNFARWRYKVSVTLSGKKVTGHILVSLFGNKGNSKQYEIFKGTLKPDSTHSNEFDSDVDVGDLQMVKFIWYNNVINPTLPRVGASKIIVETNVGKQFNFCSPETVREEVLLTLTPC

[2] = oral administration; ref [60], [61]; cited from earlier work
[3] = Estimated local exposure in the gastrointestinal tract (daily dose divided by volume of the human gastrointestinal system); settings: oral AGE at daily dosage recommended by Chinese Materia Medica
Description: A. grossedentata is known as the “king of flavonoids”, while the content of total flavonoids in AGE is up to 45% ([57]). Herein, a total of nine flavonoids in AGE were identified and characterized by LC–MS/MS-based chemical profiling.

[4] = target: T1, human pancreatic lipase (hPL); experiment: Inhibition kinetic analyses against hPL-catalyzed DDAO-ol hydrolysis (Lineweaver-Burk); type: biochemical
[5] = target: T1, human pancreatic lipase (hPL); experiment: Time-dependent inhibition assay of hPL (different pre-incubation times); type: biochemical; settings: long pre-incubation time vs. standard
Experimental: After pre-incubating at 37°C for 3 min, the substrate of DDAO-ol (20 μM, final concentration) was added to the initial reaction. […] The standard curve was plotted using DDAO as product standard (Supplementary Figure S6). The control incubations without inhibitors were also performed.

Compound: Myricitrin
hPL inhibition at high dose [1]: did not inhibit

Compound: Sanggenone C [SanggenoneC, reference compound]
IC50 [1]: 3.46 ± 0.07 µM

Compound: O=c1c(O)c(-c2cc(O)c(O)c(O)c2)oc2cc(O)cc(O)c12 [Myricetin]
Ki ([4]; apparent Ki): 2.04 ± 0.75 µM
local exposure in the gastrointestinal tract [3]: 19.37 µM
IC50 [1]: 1.34 ± 0.18 µM
remaining activity at 10 µM [1]: < 15%
time dependence of hPL inhibition [5]: not time-dependent

Compound: O=c1c(O)c(-c2ccc(O)c(O)c2)oc2cc(O)cc(O)c12 [Quercetin]
Inhibition mode ([4]; Lineweaver-Burk plots): Non-competitive
remaining activity at 10 µM [1]: < 15%
time dependence of hPL inhibition [5]: not time-dependent

Now from value to compound, other results behind:

local exposure in the gastrointestinal tract [3]: 206.08 µM
IC50 [1]: 34.3 ± 4.63 µM
Compound: O=C1c2c(O)cc(O)cc2O[C@H](c2cc(O)c(O)c(O)c2)[C@H]1O [Dihydromyricetin]
local exposure in stomach and small intestine vs. other deep organs (heart, liver, spleen, lung, kidney, brain) [2]: much higher
oral bioavailability [2]: very poor

IC50 [1]: > 100 µM
hPL inhibition at high dose [1]: did not inhibit
Compound: O=c1c(O[C@@H]2OC[C@@H](O)[C@H](O)[C@H]2O)c(-c2ccc(O)c(O)c2)oc2cc(O)cc(O)c12 [Reynoutirn, Reynoutrin]

local exposure in the gastrointestinal tract [3]: 11.85 µM
IC50 [1]: 27.8 ± 2.92 µM
hPL inhibition activity (qualitative) [1]: moderate
Compound: O=C1c2c(O)cc(O)cc2OC(c2ccc(O)c(O)c2)C1O (stereo not shown) [Taxifolin]

local exposure in the gastrointestinal tract [3]: 106.90 µM
IC50 [1]: 14.4 ± 1.21 µM
hPL inhibition activity (qualitative) [1]: moderate
Compound: O=C1c2c(O)cc(O)cc2O[C@H](c2cc(O)c(O)c(O)c2)[C@@H]1O [Iso-dihydromyricetin]
